Test results: patent EP0529395A2, “Benzamide multidrug resistance reversing agents” (Bristol-Myers Squibb Company, priority 1991, dated 1993)
Starred links: 1 amine or outer side, 2 acyl side, 3 side chain; linkers in the order of their positions; H or OH if unused. Positions of bridges follow the written chain, without caps; N, C: chain ends. Non-standard residues stand in square brackets, D forms with d. Residues, ends and D or L forms follow the SMILES beside them. Chains are numbered I, II in the order given. Actinocin(9to1) = Cc1c2oc3c(C)ccc(C(=O)[*:1])c3nc-2c(C(=O)[*:2])c(N)c1=O; NMeV = CN[C@H](C(=O)O)C(C)C; Sar = CNCC(=O)O

Experiments:
Format in all cases: cell-based, human
MCF-7/ADR = assay: Cytotoxic assay, MDR reversing effect with Adriamycin in resistant breast carcinoma cells
Method: (§1) Cell Culture: HCT116/VM46 cells were selected from human colon carcinoma HCT116 cell line for resistance to VM26 and MCF-7/ADR cells were selected from human breast carcinoma MCF-7 cell line for resistance to Adriamycin. […] The cell lines were grown in tissue culture flasks containing McCoy's 5A medium and 10% fetal bovine serum. Cells were maintained at 37°C in a humidified atmosphere containing 5% C02 and subcultured every 5 days.
(§2) Cytotoxic Assay: The cells were seeded in 96 well microtiter plates at 5x10^3 cells per well and allowed to grow for 24 hours at 37 °C. Cells were then incubated with decreasing amounts of antitumor agents: Adriamycin (100 µM, maximal concentration) or actinomycin D (17.6 ng/ml), for MCF-7 and HCT-116 cells, respectively. Chemosensitizers were added at variable concentrations ranging from 0.08 µM to […]. In parallel, verapamil was used as positive control at the same concentrations. After 48 hours of incubation, the cells were washed, fixed and stained with crystal violet. Absorbance was read by Molecular Devices' microtiter plate reader at the wavelength of 595nm. The IC50 value (50% inhibition of cell growth) was determined from relative survival rates resulted from two to three independent experiments. The term "fold resistance" was defined as the ratio of the IC50 for antitumor drug in the presence or absence of chemosensitizer in resistant cells divided by the IC50 for antitumor drug in its sensitive counterpart. This value provides an estimate of the apparent potency of each reversing agent in enhancing drug effect.

HCT-116/VM46 = assay: Cytotoxic assay, MDR reversing effect with actinomycin D in resistant colon carcinoma cells
Method: as §1, §2

HCT116 = assay: Cytotoxic assay, actinomycin D in sensitive colon carcinoma cells; conditions: no chemosensitizer
Method: as §1
as §2, with “The term "fold resistance" was defined as the ratio of the IC50 for antitumor drug in the presence or absence of chemosensitizer in resistant cells divided by the IC50 for antitumor drug in its sensitive counterpart. This value provides an estimate of the apparent potency of each reversing agent in enhancing drug effect.” left out

[1] = ActD IC50 in HCT-116/VM46 with chemosensitizer 0.4 μM divided by ActD IC50 in sensitive HCT116
[2] = ADR IC50 in MCF-7/ADR with chemosensitizer 0.67 µM divided by ADR IC50 in sensitive MCF-7

## COc1cccc2c1C(=O)c1c(O)c3c(c(O)c1C2=O)C[C@@](O)(C(=O)CO)C[C@@H]3O[C@H]1C[C@H](N)[C@H](O)[C@H](C)O1 [ADR, Adriamycin]
MCF-7/ADR; Homo sapiens, NCI/ADR-RES, 48 h, MCF-7/ADR cells, no chemosensitizer
  IC50: 50 µM
MCF-7/ADR; MCF-7/ADR versus MCF-7, ADR, no chemosensitizer
  Fold Resistance: 138.9

## Cc1c2oc3c(C)ccc(C(=O)N[C@@H]4C(=O)N[C@H](C(C)C)C(=O)N5CCC[C@H]5C(=O)N(C)CC(=O)N(C)[C@@H](C(C)C)C(=O)O[C@@H]4C)c3nc-2c(C(=O)N[C@@H]2C(=O)N[C@H](C(C)C)C(=O)N3CCC[C@H]3C(=O)N(C)CC(=O)N(C)[C@@H](C(C)C)C(=O)O[C@@H]2C)c(N)c1=O [ActD, Actinomycin D] (I: T[dV]P[Sar][NMeV] / II: T[dV]P[Sar][NMeV]; ester I:1-I:C, II:1-II:C; linker I:N-II:N via Actinocin(9to1))
HCT-116/VM46; HCT-116/VM46 cells, no chemosensitizer
  ActD IC50: 10 ng/mL
HCT-116/VM46; HCT-116/VM46 versus HCT116, ActD, no chemosensitizer
  Fold Resistance: 20.0
HCT116
  ActD IC50: 0.5 ng/mL

## CCN(CC)CCN(C(=O)c1cc(Cl)c(N)cc1Oc1ccc(C(F)(F)F)cc1[N+](=O)[O-])c1ccc(C(F)(F)F)cc1[N+](=O)[O-] [Ia]
HCT-116/VM46; [1]
  Fold Resistance: 11.0

## CCN(CC)CCNC(=O)c1cc(Cl)c(N)cc1OCCCc1ccccc1 [Ic, 4-Amino-5-chloro-N-[2-(diethylamino)ethyl]-2-[3-(phenyl)pronoxy]benzamide]
HCT-116/VM46; [1]
  Fold Resistance: 9.8

## C/C=C/C(=O)Nc1cc(OCCSc2ccccc2)c(C(=O)NCCN(CC)CC)cc1Cl [If, 5-Chloro-4-crotonylamino-N-[2-(diethylamino)ethyl]-2-[2-(phenylthio)ethoxy]benzamide]
HCT-116/VM46; [1]
  Fold Resistance: 4.8
MCF-7/ADR; [2]
  Fold Resistance: 28.6

## CCN(CC)CCN(C(=O)c1cc(Cl)c(N)cc1Oc1ccc([N+](=O)[O-])cc1)c1ccc([N+](=O)[O-])cc1 [Ii, 4-Amino-5-chloro-N-[2-(diethylamino)ethyl]-2-(4-nitrophenoxy)-N-(4-nitrophenyl)benzamide]
HCT-116/VM46; [1]
  Fold Resistance: 9.8

## COc1ccc(CCN(C)CCCC(C#N)(c2ccc(OC)c(OC)c2)C(C)C)cc1OC (stereo not drawn) [Verapamil, verapamil]
HCT-116/VM46; [1]
  Fold Resistance: 11.6
MCF-7/ADR; [2]
  Fold Resistance: 63.9
